# Assay results reported in US7470711B2, “Piperidinyl substituted cyclohexane-1,4-diamines” (Janssen Pharmaceutica N.V., priority 2005, dated 2008).
# Read-outs that look alike come from different tables or passages of the source.
# How the values were obtained:
# [1] = molecular target: T1, α1b-AR (Homo sapiens, UniProt P35368); test: α1-Adrenergic receptor radio-ligand binding assay, α1b subtype
# T1 construct: expressed in transfected cells; host or cells: COS-7 cells (membranes)
# T1 sequence (P35368 1-520): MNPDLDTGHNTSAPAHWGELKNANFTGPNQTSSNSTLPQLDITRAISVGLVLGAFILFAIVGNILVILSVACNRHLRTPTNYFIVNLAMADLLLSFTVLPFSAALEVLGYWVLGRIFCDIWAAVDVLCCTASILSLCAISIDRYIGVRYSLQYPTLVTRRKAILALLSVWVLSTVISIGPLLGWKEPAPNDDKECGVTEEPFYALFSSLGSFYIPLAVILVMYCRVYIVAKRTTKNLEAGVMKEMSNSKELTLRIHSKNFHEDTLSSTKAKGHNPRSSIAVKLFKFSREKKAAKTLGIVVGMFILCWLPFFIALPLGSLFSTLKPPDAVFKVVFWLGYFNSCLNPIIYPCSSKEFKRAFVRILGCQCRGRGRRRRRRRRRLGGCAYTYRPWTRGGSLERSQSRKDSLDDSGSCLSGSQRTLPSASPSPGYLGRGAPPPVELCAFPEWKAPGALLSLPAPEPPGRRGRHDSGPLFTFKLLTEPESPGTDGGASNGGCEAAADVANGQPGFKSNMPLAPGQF
# Experimental: (§1) Membranes were prepared from COS-7 cells (African Green monkey kidney SV40-transformed cells) that had been transfected with one of the three α1-AR subtypes (Genbank accession number for the α1a subtype: AF013261; Genbank accession number for the α1b subtype: NM000679; Genbank accession number for the α1d subtype: NM000678) using the following method: COS cells from ten 100 mm tissue culture plates were scraped into a 5 mL volume of TE (a mixture of 50 mM Tris-HCl, 5 mM EDTA, pH 7.4). […] The disrupted cells were centrifuged at 1000×g for 10 min at 4° C. Supernatants were centrifuged at 34,500×g for 20 min at 4° C. The membrane pellets were suspended in a 2 mL volume of TNE (a mixture of 50 mM Tris-HCl, 5 mM EDTA and 150 mM NaCl at pH 7.4). An aliquot of the membrane suspension was stored at −70° C. until use. The protein concentration was determined using the BioRad “DC” protein assay kit following membrane solubilization with Triton X-100.
# (§2) Triplicate determinations of radio-ligand binding in the presence of increasing concentrations of testing compound were made. The reagents were added to 96-well polypropylene plate wells. […] The plate was incubated at rt for 1 hr. The contents of the wells were filtered through a glass filter (type C) (GF/C) membrane Unifilter plate (Packard Instruments) using the Packard Filtermate cell harvester. The filter plates were dried in a vacuum oven for 30 min at 40° C. 25 μL Microscint 20 liquid scintillation fluid (Packard Instuments) was added to each well. The radioactive content was analyzed in the TopCount microplate scintillation counter (Packard Instruments).
# [2] = molecular target: T2, α1a-AR (Homo sapiens, UniProt P35348); test: α1-Adrenergic receptor radio-ligand binding assay, α1a subtype
# T2 construct: expressed in transfected cells; host or cells: COS-7 cells (membranes)
# T2 sequence (P35348 1-455 isoform P35348-4): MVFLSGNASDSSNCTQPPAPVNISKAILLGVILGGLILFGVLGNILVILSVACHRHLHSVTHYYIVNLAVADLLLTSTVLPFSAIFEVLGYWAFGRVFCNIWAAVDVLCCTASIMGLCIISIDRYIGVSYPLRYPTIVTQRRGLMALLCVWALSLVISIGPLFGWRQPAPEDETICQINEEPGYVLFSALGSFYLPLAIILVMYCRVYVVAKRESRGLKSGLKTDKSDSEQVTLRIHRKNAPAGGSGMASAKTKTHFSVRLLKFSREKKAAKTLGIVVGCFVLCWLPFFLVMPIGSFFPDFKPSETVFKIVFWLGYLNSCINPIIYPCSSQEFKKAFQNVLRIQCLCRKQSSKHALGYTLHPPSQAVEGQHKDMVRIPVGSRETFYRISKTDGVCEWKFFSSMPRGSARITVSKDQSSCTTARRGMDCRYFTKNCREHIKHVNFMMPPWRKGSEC
# Experimental: as §1, §2
# [3] = molecular target: T3, α1d-AR (Homo sapiens, UniProt P25100); test: α1-Adrenergic receptor radio-ligand binding assay, α1d subtype
# T3 construct: expressed in transfected cells; host or cells: COS-7 cells (membranes)
# T3 sequence (P25100 1-572): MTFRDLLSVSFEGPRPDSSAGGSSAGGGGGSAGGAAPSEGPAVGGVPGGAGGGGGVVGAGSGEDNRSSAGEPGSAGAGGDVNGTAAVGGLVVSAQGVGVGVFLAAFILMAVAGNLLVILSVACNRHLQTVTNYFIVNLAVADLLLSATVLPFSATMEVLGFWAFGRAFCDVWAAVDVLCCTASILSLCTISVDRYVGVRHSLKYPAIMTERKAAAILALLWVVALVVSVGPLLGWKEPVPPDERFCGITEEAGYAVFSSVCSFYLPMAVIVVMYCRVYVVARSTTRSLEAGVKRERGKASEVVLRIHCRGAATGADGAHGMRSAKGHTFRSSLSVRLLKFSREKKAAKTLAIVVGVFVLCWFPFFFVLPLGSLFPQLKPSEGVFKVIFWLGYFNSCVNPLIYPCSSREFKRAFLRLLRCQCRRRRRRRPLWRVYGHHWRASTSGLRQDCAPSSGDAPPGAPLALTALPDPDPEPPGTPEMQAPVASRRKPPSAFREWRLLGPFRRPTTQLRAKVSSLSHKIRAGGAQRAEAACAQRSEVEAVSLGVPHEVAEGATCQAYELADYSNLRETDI
# Experimental: as §1, §2
# [4] = 125I-HEAT, membranes of COS-7 cells transfected with α1b subtype, rt 1 hr, read-out: Receptor Binding, Ki α1b-AR
# [5] = 125I-HEAT, membranes of COS-7 cells transfected with α1a subtype, rt 1 hr, read-out: Receptor Binding, Ki α1a-AR
# [6] = 125I-HEAT, membranes of COS-7 cells transfected with α1d subtype, rt 1 hr, read-out: Receptor Binding, Ki α1d-AR
# [7] = read-out: Receptor Binding, Ki α1a-AR
structure (smiles),measurement,setting,value
"O=S(=O)(N[C@H]1CC[C@@H](N2CCC(c3ccccc3OC3CC3)CC2)CC1)c1ccc(Cl)cc1Cl [Cpd 15, 2,4-dichloro-N-cis-{4-[4-(2-cyclopropoxy-phenyl)-piperidin-1-yl]-cyclohexyl}-benzenesulfonamide]",Ki,[1]; [4],839 nM
same,Ki,[2]; [5],79 nM
same,Ki,[3]; [6],6.1 nM
"O=S(=O)(N[C@H]1CC[C@@H](N2CCC(c3ccccc3OC3CC3)CC2)CC1)c1cc(Cl)ccc1F [Cpd 11, 5-chloro-N-cis-{4-[4-(2-cyclopropoxy-phenyl)-piperidin-1-yl]-cyclohexyl}-2-fluoro-benzenesulfonamide]",Ki,[1]; [4],107 nM
same,Ki,[2]; [5],1.8 nM
same,Ki,[3]; [6],2.1 nM
"COc1ccc(Cl)cc1S(=O)(=O)N[C@H]1CC[C@H](N2CCC(c3ccccc3OC3CC3)CC2)CC1 [Cpd 10, 5-chloro-N-trans-{4-[4-(2-cyclopropoxy-phenyl)-piperidin-1-yl]-cyclohexyl}-2-methoxy-benzenesulfonamide]",Ki,[1]; [4],305 nM
same,Ki,[2]; [5],4.5 nM
same,Ki,[3]; [6],47 nM
"COc1ccc(S(=O)(=O)N[C@H]2CC[C@@H](N3CCC(c4ccccc4OCC(F)(F)F)CC3)CC2)cc1OC [Cpd 5, 3,4-dimethoxy-N-cis-(4-{4-[2-(2,2,2-trifluoro-ethoxy)-phenyl]-piperidin-1-yl}-cyclohexyl)-benzenesulfonamide]",Ki,[1],470 nM
same,Ki,[2],3 nM
same,Ki,[3],7.3 nM
"COc1ccc(S(=O)(=O)N[C@H]2CC[C@@H](N3CCC(c4ccccc4OC4CC4)CC3)CC2)cc1OC [Cpd 7, N-cis-{4-[4-(2-cyclopropoxy-phenyl)-piperidin-1-yl]-cyclohexyl}-3,4-dimethoxy-benzenesulfonamide]",Ki,[1]; [4],141 nM
same,Ki,[2]; [5],0.91 nM
same,Ki,[3]; [6],2 nM
"COc1ccc(S(=O)(=O)N[C@H]2CC[C@H](N3CCC(c4ccc(F)cc4OC(C)C)CC3)CC2)cc1OC [Cpd 32, N-trans-{4-[4-(4-fluoro-2-isopropoxy-phenyl)-piperidin-1-yl]-cyclohexyl}-3,4-dimethoxy-benzenesulfonamide]",Ki,[1]; [4],639 nM
same,Ki,[2]; [5],23 nM
same,Ki,[3]; [6],60 nM
"COc1ccc(S(=O)(=O)N[C@H]2CC[C@H](N3CCC(c4ccccc4OCC(F)(F)F)CC3)CC2)cc1OC [Cpd 6, 3,4-dimethoxy-N-trans-(4-{4-[2-(2,2,2-trifluoro-ethoxy)-phenyl]-piperidin-1-yl}-cyclohexyl)-benzenesulfonamide]",Ki,[1],1380 nM
same,Ki,[2],1.4 nM
same,Ki,[3],88.6 nM
"COc1ccc(S(=O)(=O)N[C@H]2CC[C@@H](N3CCC(c4ccc(F)cc4OC(C)C)CC3)CC2)cc1OC [Cpd 31, N-cis-{4-[4-(4-fluoro-2-isopropoxy-phenyl)-piperidin-1-yl]-cyclohexyl}-3,4-dimethoxy-benzenesulfonamide]",Ki,[1]; [4],690 nM
same,Ki,[2]; [5],16 nM
same,Ki,[3],12.4 nM
"COc1ccc(S(=O)(=O)N[C@H]2CC[C@H](N3CCC(c4cc(F)ccc4OC(C)C)CC3)CC2)cc1OC [Cpd 34, N-trans-{4-[4-(5-fluoro-2-isopropoxy-phenyl)-piperidin-1-yl]-cyclohexyl}-3,4-dimethoxy-benzenesulfonamide]",Ki,[1]; [4],1490 nM
same,Ki,[2]; [7],43 nM
same,Ki,[3]; [6],53 nM
"COc1ccc(S(=O)(=O)N[C@H]2CC[C@@H](N3CCC(c4cc(F)ccc4OC(C)C)CC3)CC2)cc1OC [Cpd 33, N-cis-{4-[4-(5-fluoro-2-isopropoxy-phenyl)-piperidin-1-yl]-cyclohexyl}-3,4-dimethoxy-benzenesulfonamide]",Ki,[1]; [4],299 nM
same,Ki,[2]; [7],3.3 nM
same,Ki,[3]; [6],1.6 nM
"COc1ccc(S(=O)(=O)N[C@H]2CC[C@H](N3CCC(c4ccccc4OC(C)C)CC3)CC2)cc1OC [Cpd 2, N-trans-{4-[4-(2-isopropoxy-phenyl)-piperidin-1-yl]-cyclohexyl}-3,4-dimethoxy-benzenesulfonamide]",Ki,[1]; [4],148 nM
same,Ki,[2]; [5],27.8 nM
same,Ki,[3]; [6],40.2 nM
"O=S(=O)(N[C@H]1CC[C@H](N2CCC(c3ccccc3OC3CC3)CC2)CC1)c1ccc(Cl)cc1Cl [Cpd 16, 2,4-dichloro-N-trans-{4-[4-(2-cyclopropoxy-phenyl)-piperidin-1-yl]-cyclohexyl}-benzenesulfonamide]",Ki,[1]; [4],411 nM
same,Ki,[2]; [5],30.4 nM
same,Ki,[3]; [6],2.4 nM
"O=S(=O)(N[C@H]1CC[C@H](N2CCC(c3ccccc3OC3CC3)CC2)CC1)c1cc(Cl)ccc1F [Cpd 12, 5-chloro-N-trans-{4-[4-(2-cyclopropoxy-phenyl)-piperidin-1-yl]-cyclohexyl}-2-fluoro-benzenesulfonamide]",Ki,[1]; [4],337 nM
same,Ki,[2]; [5],3.8 nM
same,Ki,[3]; [6],32 nM
"COc1ccc(S(=O)(=O)N[C@H]2CC[C@@H](N3CCC(c4ccccc4OC(C)C)CC3)CC2)cc1OC [Cpd 1, N-cis-{4-[4-(2-isopropoxy-phenyl)-piperidin-1-yl]-cyclohexyl}-3,4-dimethoxy-benzenesulfonamide]",Ki,[1]; [4],144 nM
same,Ki,[2],1.2 nM
same,Ki,[3],1.8 nM
"O=S(=O)(N[C@H]1CC[C@@H](N2CCC(c3ccccc3OC3CC3)CC2)CC1)c1ccc2c(c1)OCO2 [Cpd 21, benzo[1,3]dioxole-5-sulfonic acid cis-{4-[4-(2-cyclopropoxy-phenyl)-piperidin-1-yl]-cyclohexyl}-amide]",Ki,[1],275 nM
same,Ki,[2],15.6 nM
same,Ki,[3],13 nM
"O=S(=O)(N[C@H]1CC[C@H](N2CCC(c3ccccc3OC3CC3)CC2)CC1)c1ccc2c(c1)OCO2 [Cpd 22, benzo[1,3]dioxole-5-sulfonic acid trans-{4-[4-(2-cyclopropoxy-phenyl)-piperidin-1-yl]-cyclohexyl}-amide]",Ki,[1],340 nM
same,Ki,[2],14 nM
same,Ki,[3],57 nM
"COc1ccc(S(=O)(=O)N[C@H]2CC[C@H](N3CCC(c4ccccc4OC4CC4)CC3)CC2)cc1OC [Cpd 8, N-trans-{4-[4-(2-cyclopropoxy-phenyl)-piperidin-1-yl]-cyclohexyl}-3,4-dimethoxy-benzenesulfonamide]",Ki,[1]; [4],133 nM
same,Ki,[2],10.8 nM
same,Ki,[3],33.6 nM
"COc1ccc(Cl)cc1S(=O)(=O)N[C@H]1CC[C@@H](N2CCC(c3ccccc3OC3CC3)CC2)CC1 [Cpd 9, 5-chloro-N-cis-{4-[4-(2-cyclopropoxy-phenyl)-piperidin-1-yl]-cyclohexyl}-2-methoxy-benzenesulfonamide]",Ki,[1]; [4],82 nM
same,Ki,[2]; [5],1.3 nM
same,Ki,[3]; [6],2.6 nM
